Measurements from ChEMBL document CHEMBL1142471, “Antioxidant capacity of human blood plasma and human urine: simultaneous evaluation of the ORAC index and ascorbic acid concentration employing pyrogallol red as probe” (Bioorg Med Chem, 2008).

Key:
Assay type in all cases: functional
[1] = Antioxidant activity assessed as oxygen radical absorbance capacity index value by fluorescein protection assay
[2] = Antioxidant activity assessed as oxygen radical absorbance capacity index value at 5 uM by pyrogallol red protection assay
[3] = Antioxidant activity assessed as oxygen radical absorbance capacity index value by pyrogallol red protection assay

SMILES	Activity [1]	Activity [2]	Activity [3]
N[C@@H](CCC(=O)N[C@@H](CS)C(=O)NCC(=O)O)C(=O)O	0.62		
O=C1O[C@H]([C@@H](O)CO)C(O)=C1O	0.95	9.7	
Oc1nc(O)c2nc(O)[nH]c2n1	0.72		0.02
